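Tested at 5 concentrations; 48 h exposure; 96-well plates; endpoints linearly interpolated, else capped at highest concentration. At the GI50, growth is halved.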 Active and inactive are the calls of the source. Rule as the data show it: active = GI50 up to about 1.1 µM and inactive = higher.
Tests used:
Assay in all cases: growth of human tumour cells (NCI), 48 h
[1] = test system: A498
[2] = test system: CCRF-CEM
[3] = test system: Hs-578T
[4] = test system: IGROV-1
[5] = test system: K562
[6] = test system: LOX IMVI
[7] = test system: M14
[8] = test system: OVCAR-3
[9] = test system: OVCAR-4
[10] = test system: OVCAR-8
[11] = test system: PC-3
[12] = test system: RPMI-8226
[13] = test system: SF-268
[14] = test system: SF-539
[15] = test system: SK-MEL-2
[16] = test system: SK-OV-3
[17] = test system: SN12C
[18] = test system: SW-620
[19] = test system: U-251
[20] = test system: RXF 393

In the case of `CCn1c2c(c3ccccc3c1=O)C(=O)c1ccccc1-2`, the GI50 [1] is reported as > 100 µM (inactive), the GI50 [2] is reported as 22 µM (inactive) and the GI50 [3] is reported as 74.5 µM (inactive). For the same compound, the GI50 [4] was > 100 µM (inactive), the GI50 [5] was > 100 µM (inactive) and the GI50 [6] was > 100 µM (inactive). The GI50 [7] was > 100 µM (inactive), the GI50 [8] was > 100 µM (inactive) and the GI50 [9] was > 100 µM (inactive). The GI50 [10] was > 100 µM (inactive), the GI50 [11] was > 100 µM (inactive) and the GI50 [12] was > 100 µM (inactive). The GI50 [13] was > 100 µM (inactive), the GI50 [14] was 19.1 µM (inactive) and the GI50 [15] was > 100 µM (inactive). For the same compound, the GI50 [16] was > 100 µM (inactive), the GI50 [17] was > 100 µM (inactive) and the GI50 [18] was > 100 µM (inactive). The GI50 [19] was > 100 µM (inactive).
In the case of `Cc1nc(N)c(N2CCN(Cc3ccccc3)CC2)c(O)n1`, the GI50 [1] is reported as > 100 µM (inactive), the GI50 [2] is reported as > 100 µM (inactive) and the GI50 [3] is reported as > 100 µM (inactive). The GI50 [5] was > 100 µM (inactive), the GI50 [6] was > 100 µM (inactive) and the GI50 [7] was > 100 µM (inactive). The GI50 [8] was > 100 µM (inactive), the GI50 [10] was > 100 µM (inactive) and the GI50 [11] was > 100 µM (inactive). The GI50 [12] was > 100 µM (inactive), the GI50 [13] was > 100 µM (inactive) and the GI50 [14] was > 100 µM (inactive). For the same compound, the GI50 [15] was > 100 µM (inactive), the GI50 [17] was > 100 µM (inactive) and the GI50 [18] was > 100 µM (inactive). For the same compound, the GI50 [19] was > 100 µM (inactive).
For `N#CC(Cc1ccccc1)N(CCC1=CCCCC1)C(c1ccccc1)c1ccccc1` (stereo not given), the GI50 [1] was > 100 µM (inactive), the GI50 [2] was 0.456 µM (active) and the GI50 [3] was 69.3 µM (inactive). For the same compound, the GI50 [4] was > 100 µM (inactive), the GI50 [5] was 80.4 µM (inactive) and the GI50 [7] was 18.8 µM (inactive). For the same compound, the GI50 [8] was > 100 µM (inactive), the GI50 [9] was > 100 µM (inactive) and the GI50 [10] was > 100 µM (inactive). For the same compound, the GI50 [11] was 73.6 µM (inactive), the GI50 [12] was 33.3 µM (inactive) and the GI50 [20] was 27.9 µM (inactive). The GI50 [13] was > 100 µM (inactive), the GI50 [15] was > 100 µM (inactive) and the GI50 [16] was > 100 µM (inactive). For the same compound, the GI50 [18] was 38.9 µM (inactive) and the GI50 [19] was 69.5 µM (inactive).
`CC1(C)CCCCCC(C)(CCCO)C1=O` (stereo not given) was tested, and the GI50 [1] was > 100 µM (inactive), the GI50 [2] was > 100 µM (inactive) and the GI50 [3] was > 100 µM (inactive). The GI50 [4] was > 100 µM (inactive), the GI50 [5] was > 100 µM (inactive) and the GI50 [6] was > 100 µM (inactive). The GI50 [7] was > 100 µM (inactive), the GI50 [8] was > 100 µM (inactive) and the GI50 [9] was > 100 µM (inactive). For the same compound, the GI50 [10] was > 100 µM (inactive), the GI50 [11] was > 100 µM (inactive) and the GI50 [12] was > 100 µM (inactive). The GI50 [20] was > 100 µM (inactive), the GI50 [13] was > 100 µM (inactive) and the GI50 [15] was > 100 µM (inactive). The GI50 [16] was > 100 µM (inactive), the GI50 [17] was > 100 µM (inactive) and the GI50 [18] was > 100 µM (inactive). The GI50 [19] was > 100 µM (inactive).
`CC1(C)OCC([C@H]2O[C@@H](CC(=S)NCCCCCCCCCCCCNC(=S)C[C@H]3O[C@@H](C4COC(C)(C)O4)[C@H]4OC(C)(C)O[C@H]43)[C@H]3OC(C)(C)O[C@H]32)O1` (stereo not given in full) was tested, and the GI50 [1] was 11.9 µM (inactive), the GI50 [3] was > 100 µM (inactive) and the GI50 [4] was > 100 µM (inactive). For the same compound, the GI50 [5] was 39.4 µM (inactive), the GI50 [6] was 79.1 µM (inactive) and the GI50 [7] was 52.5 µM (inactive). The GI50 [8] was 74.5 µM (inactive), the GI50 [9] was 43.3 µM (inactive) and the GI50 [10] was 53.5 µM (inactive). The GI50 [11] was 25.5 µM (inactive), the GI50 [12] was 15.7 µM (inactive) and the GI50 [20] was > 100 µM (inactive). The GI50 [13] was > 100 µM (inactive), the GI50 [14] was 57.9 µM (inactive) and the GI50 [15] was 58.5 µM (inactive). The GI50 [18] was > 100 µM (inactive) and the GI50 [19] was 35 µM (inactive).
For `Cc1nc2ccc(NC3OCC(O)C(O)C3O)cc2c(=O)n1-c1ccccc1` (stereo not given), the GI50 [1] was > 100 µM (inactive), the GI50 [3] was > 100 µM (inactive) and the GI50 [4] was > 100 µM (inactive). For the same compound, the GI50 [5] was > 100 µM (inactive), the GI50 [6] was > 100 µM (inactive) and the GI50 [8] was > 100 µM (inactive). For the same compound, the GI50 [9] was > 100 µM (inactive), the GI50 [10] was > 100 µM (inactive) and the GI50 [11] was > 100 µM (inactive). For the same compound, the GI50 [12] was > 100 µM (inactive), the GI50 [20] was > 100 µM (inactive) and the GI50 [13] was > 100 µM (inactive). The GI50 [15] was > 100 µM (inactive), the GI50 [17] was > 100 µM (inactive) and the GI50 [18] was > 100 µM (inactive). For the same compound, the GI50 [19] was > 100 µM (inactive).
With `Cn1ccnc1SC(F)(F)c1nc2ccccc2o1` the GI50 [1] was > 100 µM (inactive), the GI50 [2] was > 100 µM (inactive) and the GI50 [3] was > 100 µM (inactive). The GI50 [4] was > 100 µM (inactive), the GI50 [5] was > 100 µM (inactive) and the GI50 [7] was > 100 µM (inactive). The GI50 [8] was > 100 µM (inactive), the GI50 [9] was > 100 µM (inactive) and the GI50 [10] was > 100 µM (inactive). The GI50 [11] was > 100 µM (inactive), the GI50 [12] was > 100 µM (inactive) and the GI50 [20] was > 100 µM (inactive). The GI50 [13] was > 100 µM (inactive), the GI50 [14] was > 100 µM (inactive) and the GI50 [15] was > 100 µM (inactive). For the same compound, the GI50 [16] was > 100 µM (inactive), the GI50 [17] was > 100 µM (inactive) and the GI50 [18] was > 100 µM (inactive). For the same compound, the GI50 [19] was > 100 µM (inactive).
In the case of `Cc1nc2c(nc1C)-c1c(c3c(n1Cc1ccccc1)C(=O)CCC3)C(=O)C2=O`, the GI50 [1] is reported as 18.8 µM (inactive), the GI50 [2] is reported as 3.03 µM (inactive) and the GI50 [3] is reported as 4.2 µM (inactive). The GI50 [4] was 2.58 µM (inactive), the GI50 [5] was 2.96 µM (inactive) and the GI50 [6] was 3.14 µM (inactive). For the same compound, the GI50 [7] was 4.42 µM (inactive), the GI50 [8] was 2.38 µM (inactive) and the GI50 [9] was 1.81 µM (inactive). For the same compound, the GI50 [10] was 3.09 µM (inactive), the GI50 [11] was 5.27 µM (inactive) and the GI50 [12] was 1.84 µM (inactive). The GI50 [13] was 2.21 µM (inactive), the GI50 [14] was 2.33 µM (inactive) and the GI50 [15] was 5.08 µM (inactive). The GI50 [16] was 18.9 µM (inactive), the GI50 [17] was 2.42 µM (inactive) and the GI50 [18] was 3.07 µM (inactive). For the same compound, the GI50 [19] was 2.9 µM (inactive).
`OCC1CCC(n2cnc3c(O)ncnc32)O1` (stereo not given) was tested, and the GI50 [1] was > 92 µM (inactive), the GI50 [2] was > 100 µM (inactive) and the GI50 [3] was > 1000 µM (inactive). The GI50 [4] was > 100 µM (inactive), the GI50 [5] was > 100 µM (inactive) and the GI50 [6] was > 100 µM (inactive). For the same compound, the GI50 [7] was > 1000 µM (inactive), the GI50 [8] was > 100 µM (inactive) and the GI50 [9] was > 100 µM (inactive). For the same compound, the GI50 [10] was > 100 µM (inactive), the GI50 [11] was > 1000 µM (inactive) and the GI50 [12] was > 100 µM (inactive). For the same compound, the GI50 [20] was > 100 µM (inactive), the GI50 [15] was > 100 µM (inactive) and the GI50 [16] was > 100 µM (inactive). For the same compound, the GI50 [17] was > 100 µM (inactive) and the GI50 [18] was > 100 µM (inactive).
With `CC(C)=Cc1cc2c(cc1O)CCC1C2CC[C@@]2(C)C1CC[C@@H]2O` (stereo not given in full) the GI50 [1] was 16.4 µM (inactive), the GI50 [2] was 12.9 µM (inactive) and the GI50 [3] was 18.5 µM (inactive). The GI50 [4] was 12.8 µM (inactive), the GI50 [5] was 3.75 µM (inactive) and the GI50 [6] was 3.97 µM (inactive). For the same compound, the GI50 [7] was 10.4 µM (inactive), the GI50 [9] was 30.3 µM (inactive) and the GI50 [10] was 17.9 µM (inactive). For the same compound, the GI50 [11] was 11.7 µM (inactive), the GI50 [12] was 5.14 µM (inactive) and the GI50 [20] was 6.01 µM (inactive). The GI50 [13] was 16.7 µM (inactive), the GI50 [15] was 14.8 µM (inactive) and the GI50 [16] was 14.9 µM (inactive). For the same compound, the GI50 [17] was 14.7 µM (inactive), the GI50 [18] was 8.53 µM (inactive) and the GI50 [19] was 10.4 µM (inactive).
`Nc1ccc(/N=N/c2ccccc2)cc1` was tested, and the GI50 [1] was 46.8 µM (inactive), the GI50 [2] was 6.41 µM (inactive) and the GI50 [3] was > 100 µM (inactive). The GI50 [4] was 29.4 µM (inactive), the GI50 [5] was 35.8 µM (inactive) and the GI50 [6] was 26.7 µM (inactive). The GI50 [7] was 44.4 µM (inactive), the GI50 [8] was 18.8 µM (inactive) and the GI50 [9] was > 100 µM (inactive). The GI50 [10] was 28 µM (inactive), the GI50 [11] was 56.8 µM (inactive) and the GI50 [20] was 20.1 µM (inactive). The GI50 [14] was 35.2 µM (inactive), the GI50 [15] was 22.6 µM (inactive) and the GI50 [16] was > 100 µM (inactive). For the same compound, the GI50 [17] was 69.5 µM (inactive), the GI50 [18] was 51.8 µM (inactive) and the GI50 [19] was 46.5 µM (inactive).
